What was measured:
Assay type in all cases: biochemical
[1] = target: T1, human JAK2 (a.a. 828-1132) (Homo sapiens, UniProt O60674); assay: In vitro JAK kinase assay (HTRF, phosphorylation of a biotinylated peptide), JAK2; settings: Table D1
T1 construct: JAK2 (a.a. 828-1132); His tag (N); made in house; host or cells: insect cells (baculovirus)
Method in brief: (§1)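 Kinase reactions ran at room temperature for 1 h with ATP matched per isoform (JAK1 90 μM, JAK2 30 μM, JAK3 3 μM). After an EDTA stop, the phosphorylated biotin-peptide was read by HTRF using Eu-Py20 and SA-APC after 40 min binding.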

[2] = target: T2, human JAK1 (a.a. 837-1142) (Homo sapiens, UniProt P23458); assay: In vitro JAK kinase assay (HTRF, phosphorylation of a biotinylated peptide), JAK1; settings: Table D1; read-out: JAK1 IC50
T2 construct: human JAK1 (a.a. 837-1142); His tag (N); made in house; host or cells: insect cells (baculovirus)
Method in brief: as §1

TYK2 = TYK2 (Homo sapiens, UniProt P29597); assay: TYK2 kinase inhibition (Table A1); settings: Table D1
[3] = target: T3, human JAK3 (a.a. 781-1124) (Homo sapiens, UniProt P52333); assay: In vitro JAK kinase assay (HTRF, phosphorylation of a biotinylated peptide), JAK3; settings: Table D1
T3 construct: JAK3 (a.a. 781-1124); His tag (N); made in house; host or cells: insect cells (baculovirus)
Method in brief: as §1

Sequence of TYK2 (P29597 whole entry): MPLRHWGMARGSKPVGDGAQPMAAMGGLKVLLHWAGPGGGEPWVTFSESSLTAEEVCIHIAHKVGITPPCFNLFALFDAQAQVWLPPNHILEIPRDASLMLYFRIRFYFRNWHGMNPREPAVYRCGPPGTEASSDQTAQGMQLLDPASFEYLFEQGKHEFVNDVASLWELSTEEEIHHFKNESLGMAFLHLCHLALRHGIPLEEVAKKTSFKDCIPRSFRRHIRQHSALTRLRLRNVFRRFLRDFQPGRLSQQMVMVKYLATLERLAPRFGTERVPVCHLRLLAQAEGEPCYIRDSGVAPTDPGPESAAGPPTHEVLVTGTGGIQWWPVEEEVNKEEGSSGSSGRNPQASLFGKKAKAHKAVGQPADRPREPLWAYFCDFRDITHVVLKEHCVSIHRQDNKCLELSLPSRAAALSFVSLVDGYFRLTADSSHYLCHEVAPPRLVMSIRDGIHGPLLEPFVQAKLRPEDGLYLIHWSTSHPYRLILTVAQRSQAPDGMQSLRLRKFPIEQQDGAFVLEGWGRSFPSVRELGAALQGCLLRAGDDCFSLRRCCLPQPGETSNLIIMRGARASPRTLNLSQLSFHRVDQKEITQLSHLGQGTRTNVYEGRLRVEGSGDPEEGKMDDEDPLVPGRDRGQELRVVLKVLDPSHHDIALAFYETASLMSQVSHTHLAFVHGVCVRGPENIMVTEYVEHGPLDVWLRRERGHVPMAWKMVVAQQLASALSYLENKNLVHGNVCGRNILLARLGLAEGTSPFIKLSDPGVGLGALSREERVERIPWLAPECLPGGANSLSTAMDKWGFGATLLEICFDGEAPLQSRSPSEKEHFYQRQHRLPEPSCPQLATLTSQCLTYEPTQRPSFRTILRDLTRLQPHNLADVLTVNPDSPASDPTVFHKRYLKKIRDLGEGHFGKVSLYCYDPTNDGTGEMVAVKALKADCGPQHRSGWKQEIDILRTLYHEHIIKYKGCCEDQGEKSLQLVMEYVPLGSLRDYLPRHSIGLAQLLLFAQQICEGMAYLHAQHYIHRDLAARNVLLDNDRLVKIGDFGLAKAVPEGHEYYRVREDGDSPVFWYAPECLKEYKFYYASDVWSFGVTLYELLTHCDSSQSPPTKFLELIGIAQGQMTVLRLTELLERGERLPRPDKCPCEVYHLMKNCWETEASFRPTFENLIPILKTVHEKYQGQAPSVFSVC
T1 sequence (O60674 828-1132): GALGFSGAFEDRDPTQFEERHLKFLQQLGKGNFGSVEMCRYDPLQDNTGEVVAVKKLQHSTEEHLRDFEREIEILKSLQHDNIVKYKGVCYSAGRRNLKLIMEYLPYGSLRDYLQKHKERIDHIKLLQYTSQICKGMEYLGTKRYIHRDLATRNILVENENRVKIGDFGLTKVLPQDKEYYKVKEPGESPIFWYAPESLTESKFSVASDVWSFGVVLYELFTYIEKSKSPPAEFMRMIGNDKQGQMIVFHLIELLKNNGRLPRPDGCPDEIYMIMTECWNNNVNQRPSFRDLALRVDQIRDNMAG
T2 sequence (P23458 849-1154): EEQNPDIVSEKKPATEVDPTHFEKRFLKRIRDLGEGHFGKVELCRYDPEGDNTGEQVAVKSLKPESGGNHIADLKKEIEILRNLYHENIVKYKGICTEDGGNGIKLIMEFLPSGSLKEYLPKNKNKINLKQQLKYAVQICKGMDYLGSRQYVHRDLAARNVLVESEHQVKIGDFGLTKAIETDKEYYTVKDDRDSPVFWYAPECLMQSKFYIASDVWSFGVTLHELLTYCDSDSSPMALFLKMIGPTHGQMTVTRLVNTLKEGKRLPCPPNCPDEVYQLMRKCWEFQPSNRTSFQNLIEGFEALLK
T3 sequence (P52333 781-1124): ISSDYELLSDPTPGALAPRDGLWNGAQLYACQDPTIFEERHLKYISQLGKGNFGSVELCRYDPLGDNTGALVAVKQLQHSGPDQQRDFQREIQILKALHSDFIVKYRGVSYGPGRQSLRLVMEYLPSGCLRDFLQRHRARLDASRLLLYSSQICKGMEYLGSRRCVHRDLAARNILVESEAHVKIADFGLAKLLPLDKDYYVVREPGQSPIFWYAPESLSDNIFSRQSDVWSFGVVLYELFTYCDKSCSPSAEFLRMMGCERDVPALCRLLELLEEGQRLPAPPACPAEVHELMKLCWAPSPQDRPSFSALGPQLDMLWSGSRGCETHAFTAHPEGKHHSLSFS

| Structure (SMILES) | IC50 [1] | IC50 [2] | IC50 (TYK2) | IC50 [3] |
| --- | --- | --- | --- | --- |
| O=C(C[C@@H]1CCN(C(=O)Nc2ccccc2F)C1)Nc1ccc2cc1CCc1cncc(c1)Nc1ncc(Cl)c(n1)N2 [Example D135, (3S)-3-(2-{[6-Chloro-2,4,8,18,22-pentaazatetracyclo[14.3.1.1(3,7).1(9,13)]docosa-1(20),3(22),4,6,9(21),10,12,16,18-nonaen-12-yl]amino}-2-oxoethyl)-N-(2-fluorophenyl)pyrrolidine-1-carboxamide bis(trifluoroacetate)] | 314 nM | 60 nM | > 1000 nM | > 1000 nM |
| O=C(C[C@H]1CCN(c2nc3cccnc3o2)C1)Nc1ccc2cc1CCc1cncc(c1)Nc1ncc(Cl)c(n1)N2 [Example D139, N-[6-Chloro-2,4,8,18,22-pentaazatetracyclo[14.3.1.1(3,7).1(9,13)]docosa-1(20),3(22),4,6,9(21),10,12,16,18-nonaen-12-yl]-2-[(3R)-1-[1,3]oxazolo[5,4-b]pyridin-2-ylpyrrolidin-3-yl]acetamide tris(trifluoroacetate)] | 159 nM | 12 nM | 282 nM | > 1000 nM |
| Cn1cc(C(=O)N2CC(CC(=O)Nc3ccc4cc3CCc3cncc(c3)Nc3ncc(Cl)c(n3)N4)C2)cn1 [Example D142, N-[6-Chloro-2,4,8,18,22-pentaazatetracyclo[14.3.1.1(3,7).1(9,13)]docosa-1(20),3(22),4,6,9(21),10,12,16,18-nonaen-12-yl]-2-{1-[(1-methyl-1H-pyrazol-4-yl)carbonyl]azetidin-3-yl}acetamide bis(trifluoroacetate)] | 144 nM | 37 nM | 193 nM | > 1000 nM |
| Cc1cc(C(=O)N2CC(CC(=O)Nc3ccc4cc3CCc3cncc(c3)Nc3ncc(Cl)c(n3)N4)C2)no1 [Example D143, N-[6-Chloro-2,4,8,18,22-pentaazatetracyclo[14.3.1.1(3,7).1(9,13)]docosa-1(20),3(22),4,6,9(21),10,12,16,18-nonaen-12-yl]-2-{1-[(5-methylisoxazol-3-yl)carbonyl]azetidin-3-yl}acetamide bis(trifluoroacetate)] | 132 nM | 26 nM | 304 nM | > 1000 nM |
| O=C(CC1CN(C(=O)c2ccno2)C1)Nc1ccc2cc1CCc1cncc(c1)Nc1ncc(Cl)c(n1)N2 [Example D144, N-[6-Chloro-2,4,8,18,22-pentaazatetracyclo[14.3.1.1(3,7).1(9,13)]docosa-1(20),3(22),4,6,9(21),10,12,16,18-nonaen-12-yl]-2-[1-(isoxazol-5-ylcarbonyl)azetidin-3-yl]acetamide bis(trifluoroacetate)] | 172 nM | 32 nM | 260 nM | > 1000 nM |
| CS(=O)(=O)N1CC(CC(=O)Nc2ccc3cc2CCc2cncc(c2)Nc2ncc(Cl)c(n2)N3)C1 [Example D146, N-[6-Chloro-2,4,8,18,22-pentaazatetracyclo[14.3.1.1(3,7).1(9,13)]docosa-1(20),3(22),4,6,9(21),10,12,16,18-nonaen-12-yl]-2-[1-(methylsulfonyl)azetidin-3-yl]acetamide bis(trifluoroacetate)] | 149 nM | 24 nM | 270 nM | > 1000 nM |
| O=C(CC1CN(C(=O)c2ccn[nH]2)C1)Nc1ccc2cc1CCc1cncc(c1)Nc1ncc(Cl)c(n1)N2 [Example D150, N-[6-Chloro-2,4,8,18,22-pentaazatetracyclo[14.3.1.1(3,7).1(9,13)]docosa-1(20),3(22),4,6,9(21),10,12,16,18-nonaen-12-yl]-2-[1-(1H-pyrazol-5-ylcarbonyl)azetidin-3-yl]acetamide bis(trifluoroacetate)] | 136 nM | 33 nM | 435 nM | > 1000 nM |
| O=C(CC1CN(c2nncs2)C1)Nc1ccc2cc1CCc1cncc(c1)Nc1ncc(Cl)c(n1)N2 [Example D151, N-[6-Chloro-2,4,8,18,22-pentaazatetracyclo[14.3.1.1(3,7).1(9,13)]docosa-1(20),3(22),4,6,9(21),10,12,16,18-nonaen-12-yl]-2-[1-(1,3,4-thiadiazol-2-yl)azetidin-3-yl]acetamide tris(trifluoroacetate)] | > 200 nM | 76 nM | > 200 nM | > 200 nM |

Stronger by IC50 [1], values ahead:

| IC50 [1] | IC50 [2] | IC50 (TYK2) | IC50 [3] | Structure (SMILES) |
| --- | --- | --- | --- | --- |
| 123 nM | 31 nM | 775 nM | > 1000 nM | O=C(CC1CN(C(=O)c2nccs2)C1)Nc1ccc2cc1CCc1cncc(c1)Nc1ncc(Cl)c(n1)N2 [Example D145, N-[6-Chloro-2,4,8,18,22-pentaazatetracyclo[14.3.1.1(3,7).1(9,13)]docosa-1(20),3(22),4,6,9(21),10,12,16,18-nonaen-12-yl]-2-[1-(1,3-thiazol-2-ylcarbonyl)azetidin-3-yl]acetamide bis(trifluoroacetate)] |
| 106 nM | 9 nM | 262 nM | > 1000 nM | O=C(CC1CN(c2nc3cccnc3o2)C1)Nc1ccc2cc1CCc1cncc(c1)Nc1ncc(Cl)c(n1)N2 [Example D141, N-[6-Chloro-2,4,8,18,22-pentaazatetracyclo[14.3.1.1(3,7).1(9,13)]docosa-1(20),3(22),4,6,9(21),10,12,16,18-nonaen-12-yl]-2-(1-[1,3]oxazolo[5,4-b]pyridin-2-ylazetidin-3-yl)acetamide tris(trifluoroacetate)] |
| 96 nM | 12 nM | 500 nM | > 1000 nM | O=C(CC1CN(c2nc3ccccc3s2)C1)Nc1ccc2cc1CCc1cncc(c1)Nc1ncc(Cl)c(n1)N2 [Example D138, 2-[1-(1,3-Benzothiazol-2-yl)azetidin-3-yl]-N-[6-chloro-2,4,8,18,22-pentaazatetracyclo[14.3.1.1(3,7).1(9,13)]docosa-1(20),3(22),4,6,9(21),10,12,16,18-nonaen-12-yl]acetamide tris(trifluoroacetate)] |
| 94 nM | 18 nM | 170 nM | > 1000 nM | O=C(CC1CN(C(=O)c2cn[nH]c2)C1)Nc1ccc2cc1CCc1cncc(c1)Nc1ncc(Cl)c(n1)N2 [Example D149, N-[6-Chloro-2,4,8,18,22-pentaazatetracyclo[14.3.1.1(3,7).1(9,13)]docosa-1(20),3(22),4,6,9(21),10,12,16,18-nonaen-12-yl]-2-[1-(1H-pyrazol-4-ylcarbonyl)azetidin-3-yl]acetamide bis(trifluoroacetate)] |
| 85 nM | 26 nM | 401 nM | > 1000 nM | O=C(CC1CN(C(=O)c2nc[nH]n2)C1)Nc1ccc2cc1CCc1cncc(c1)Nc1ncc(Cl)c(n1)N2 [Example D147, N-[6-Chloro-2,4,8,18,22-pentaazatetracyclo[14.3.1.1(3,7).1(9,13)]docosa-1(20),3(22),4,6,9(21),10,12,16,18-nonaen-12-yl]-2-[1-(1H-1,2,4-triazol-3-ylcarbonyl)azetidin-3-yl]acetamide bis(trifluoroacetate)] |
| 83 nM | 8.6 nM | 226 nM | > 1000 nM | O=C(C[C@@H]1CCN(c2nc3cccnc3o2)C1)Nc1ccc2cc1CCc1cncc(c1)Nc1ncc(Cl)c(n1)N2 [Example D140, N-[6-Chloro-2,4,8,18,22-pentaazatetracyclo[14.3.1.1(3,7).1(9,13)]docosa-1(20),3(22),4,6,9(21),10,12,16,18-nonaen-12-yl]-2-[(3S)-1-[1,3]oxazolo[5,4-b]pyridin-2-ylpyrrolidin-3-yl]acetamide tris(trifluoroacetate)] |
| 53 nM | 6.6 nM | 106 nM | > 1000 nM | O=C(C[C@H]1CCN(c2nc3ccccc3s2)C1)Nc1ccc2cc1CCc1cncc(c1)Nc1ncc(Cl)c(n1)N2 [Example D136, 2-[(3R)-1-(1,3-Benzothiazol-2-yl)pyrrolidin-3-yl]-N-[6-chloro-2,4,8,18,22-pentaazatetracyclo[14.3.1.1(3,7).1(9,13)]docosa-1(20),3(22),4,6,9(21),10,12,16,18-nonaen-12-yl]acetamide tris(trifluoroacetate)] |
| 49 nM | 112 nM | 195 nM | 149 nM | O=C(c1ccc(C(F)(F)F)cc1)N1CCN(c2ccc3cc2CCc2cccc(c2)Nc2ncc(Cl)c(n2)N3)CC1 [Example D96, 6-Chloro-12-{4-[4-(trifluoromethyl)benzoyl]piperazin-1-yl}-2,4,8,22-tetraazatetracyclo[14.3.1.1(3,7).1(9,13)]docosa-1(20),3(22),4,6,9(21),10,12,16,18-nonaene bis(trifluoroacetate)] |
| 34 nM | 15 nM | 414 nM | > 1000 nM | O=C(CC1CN(C(=O)c2c[nH]nn2)C1)Nc1ccc2cc1CCc1cncc(c1)Nc1ncc(Cl)c(n1)N2 [Example D148, N-[6-Chloro-2,4,8,18,22-pentaazatetracyclo[14.3.1.1(3,7).1(9,13)]docosa-1(20),3(22),4,6,9(21),10,12,16,18-nonaen-12-yl]-2-[1-(1H-1,2,3-triazol-4-ylcarbonyl)azetidin-3-yl]acetamide bis(trifluoroacetate)] |
| 15 nM | 1.6 nM | 66 nM | > 1000 nM | O=C(C[C@@H]1CCN(c2nc3ccccc3s2)C1)Nc1ccc2cc1CCc1cncc(c1)Nc1ncc(Cl)c(n1)N2 [Example D137, 2-[(3S)-1-(1,3-Benzothiazol-2-yl)pyrrolidin-3-yl]-N-[6-chloro-2,4,8,18,22-pentaazatetracyclo[14.3.1.1(3,7).1(9,13)]docosa-1(20),3(22),4,6,9(21),10,12,16,18-nonaen-12-yl]acetamide tris(trifluoroacetate)] |
